Common to all, as to assay: growth of human tumour cells (NCI), 48 h
The test system of test [1] is A549 NSCLC.
Test [2] concerns DU-145 prostate.
Test [3] deals with HCT-116 colon.
Test [4] relates to MALME-3M melanoma.
The subject of test [5] is MCF7 breast.
Test [6] relates to MDA-N.
In test [7] the test system is NCI-H522 lung.
Test [8] has as its system OVCAR-4 ovarian.
The test system of test [9] is PC-3 prostate.
Test [10] concerns T-47D breast.
Test [11] has as its system UO-31 renal.

SMILES strings stand for the structures.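 In this assay, cells in 96-well plates receive the compound at five concentrations for 48 hours. Endpoints are linearly interpolated between the surrounding concentrations. GI50 = concentration required for 50% inhibition of growth. At the TGI there is no net growth.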 Where a SMILES comes first, the peptide text is derived from it. The star is where a group is joined. Palmitoyl = CCCCCCCCCCCCCCCC(=O)*

As for `O=c1c2cc(S(=O)(=O)O)ccc2nc(COc2ccc(Oc3ccc(Cl)cc3Cl)cc2)n1-c1ccc(Oc2ccc(Cl)cc2)cc1Cl`, the TGI in [1] is 40.6 µM; in [2], more than 100 µM; in test [3], 58.4 µM; in [4] it was 85.2 µM; in test [5], 40.6 µM; in [6] it was 59.2 µM. For the same molecule, the TGI in test [7] was 47.8 µM; in test [8], 73.6 µM; in test [9], more than 100 µM; in [10], more than 100 µM; in test [11], 27 µM.
`COC(=O)C1=C(OC(=O)/C(=C/c2ccc(Cl)cc2)c2ccc(Cl)cc2)C(C(=O)OC)[C@]2(O)[C@@H](C(=O)OC)[C@H]1C[C@@H](c1ccccc1)[C@@H]2C(=O)OC` (stereo not given in full): the TGI in test [1], in test [2], in test [3], in test [6], in [7] and in test [8] was more than 100 µM each time. Moreover, the TGI in test [9] and in test [10] was more than 100 µM throughout.
On to `Cc1c(-c2ccccc2)[nH]c2cc(Cl)ccc2c1=O`, for which the TGI in [1], in [2], in test [3], in [4], in test [5] and in test [6] was more than 100 µM throughout. Also, the figures for the TGI in test [8] and in [10] were 66.3 µM and more than 100 µM, respectively.
Take `C=C(C)C1Cc2c(c3ccccc3n(C)c2=O)O1` (stereo not given): the TGI in test [4], in test [7] and in [11] was more than 100 µM throughout.
Regarding `CCOC(=O)c1c(C)n(-c2ccc(Cl)cc2)c2c1cc(O)c1[nH]c3c(c12)CCCC3`, the TGI in [1], in [2], in test [3], in test [4], in [5] and in test [6] was more than 100 µM each time. Besides, the TGI is 60.4 µM in test [7]; more than 100 µM in test [8]; more than 100 µM in test [9]; more than 100 µM in test [10]; more than 100 µM in test [11].
As for `CC1=C(O)C2=C(C(=O)C1=O)[C@@H](C)CC[C@@H]2[C@@H](C)C/C=C/C(C)(C)O`, the TGI in test [1] was more than 100 µM; in test [2], more than 100 µM; in test [3], more than 100 µM; in test [5] it was more than 100 µM; in test [6], more than 100 µM; in test [7] it was 58.8 µM. The TGI in [9] was more than 100 µM; in [10] it was 78.2 µM; in test [11], more than 100 µM.
On to `COC(=O)c1c(C)n([O-])c2cc(Cl)c(Cl)cc2[n+]1=O`, for which the TGI in [1] was 28.6 µM; in [2] it was 38.4 µM; in [3], more than 100 µM; in [4], 31.1 µM; in [5], more than 100 µM; in [6] it was more than 100 µM. For the same molecule, the TGI in test [7] was 25.4 µM; in test [8], 52.5 µM; in test [9], more than 100 µM; in [10], more than 100 µM; in test [11] it was 46.7 µM.
Regarding `c1ccc(-c2nc(N3CCNCC3)c3oc(-c4ccccc4)nc3n2)cc1`, the GI50 was 1.88 µM in test [2]; 1.7 µM in test [4]; 1.48 µM in test [5]; 1.99 µM in test [7]; 1.68 µM in test [8]; 2.1 µM in test [10]. The GI50 in test [11] is 1.49 µM. For the same molecule, the TGI in test [2] amounted to 3.33 µM; in [4], 3.17 µM; in test [5], 3.31 µM; in test [7], 4.51 µM; in [8] it was 3.19 µM; in test [10], 4.95 µM. The TGI in test [11] was 2.85 µM.
With `Nc1[nH]c(=O)nc2c1cnn2C1CCCCO1` (stereo not given), the TGI in test [1], in test [3], in test [4], in test [8] and in test [11] was more than 100 µM throughout.
As for `CC(C)C(C(=O)O)N1C(=O)c2ccccc2C1=O` (stereo not given), the TGI in test [1], in test [2], in test [3], in [4], in test [5] and in [6] was more than 100 µM each time. The TGI in test [7], in [8], in test [9] and in test [10] was more than 100 µM in each case.
Consider `Cc1cc(C)nc(NS(=O)(=O)c2ccc(NC(=O)c3cccc4c(Nc5ccc(S(=O)(=O)Nc6cc(C)on6)cc5)c5ccccc5nc34)cc2)n1`, for which the TGI in test [3] was 84 µM; in test [4], 44.7 µM; in test [7], 32.5 µM; in [8], 50.2 µM; in test [11], more than 100 µM.
In the case of `CCCC1CCC(=C2C(=O)CCC2=O)O1` (stereo not given), the TGI in [1], in test [2], in test [3], in test [5], in test [6] and in test [7] was more than 100 µM in each case. The TGI in [8], in [9], in test [10] and in [11] was more than 100 µM in each case.
For `COc1cc(C(C)O)c[n+](Cc2ccccc2)c1` (stereo not given), the TGI in test [1], in test [3], in [4], in test [7], in test [8] and in [11] was more than 100 µM throughout.
In the case of `CC12C=CC(=O)C=C1CCC1C3CCC(O)(C(=O)CO)C3(C)CC(O)C12F` (stereo not given), the TGI in test [1], in test [2], in [3], in test [4], in test [5] and in test [6] was more than 100 µM in each case. Also, the TGI in [7], in test [8], in test [9], in test [10] and in [11] was more than 100 µM in each case.
For `CC(N)Cc1ccc(Cl)c(Cl)c1` (stereo not given), the TGI in [1] is more than 100 µM; in test [3] it was more than 100 µM; in test [4], 35.5 µM; in test [7], more than 66.9 µM; in test [8] it was more than 100 µM; in test [11], 66.3 µM.
For `O=C(/C=C/c1ccc(Oc2cc(C(=O)/C=C/c3ccc(O)cc3)c(O)cc2O)cc1)c1ccc(O)cc1O`, the TGI in [1] is 99.5 µM; in [2], 12.8 µM; in test [3] it was 4.57 µM; in test [4] it was 26.6 µM; in test [5], 19.5 µM; in test [7], 19.1 µM. Besides, the TGI in [8] is 28.3 µM; in test [9], 24.9 µM; in test [10] it was 27.4 µM; in test [11], more than 100 µM.
Turning to `CON(C)c1nc(N(C)OC)nc(N(C)OC)n1`, the TGI in [1], in test [2], in test [3], in test [4], in [5] and in [6] was more than 10 µM each time. For the same molecule, the TGI in test [7], in test [8], in test [9], in test [10] and in test [11] was more than 10 µM each time.
Take `Cc1ccc(-c2nc(N/N=C/C=C/c3ccccc3)c3ccccc3n2)cc1`: the TGI in [1] is more than 100 µM; in test [2], 96.4 µM; in test [3], more than 100 µM; in test [4], more than 100 µM; in [5], 75.9 µM; in test [6] it was more than 100 µM. Besides, the TGI in test [7], in [8], in [9], in [10] and in [11] was more than 100 µM each time.
For the molecule `C[N+](C)(C)c1ncnc2c1ncn2C1CC(O)C(CO)O1` (stereo not given), the TGI in [1], in test [2], in [3], in test [4], in [5] and in [6] was more than 100 µM throughout. In addition, the TGI in [7], in [8], in [9], in test [10] and in [11] was more than 100 µM in each case.
With `Cn1c(-c2ccccc2)cc(-c2cccs2)c1-c1cccs1`, the TGI in [1], in test [3], in test [4], in test [5], in test [7] and in test [8] was more than 100 µM throughout. In test [11], this molecule gave a TGI of more than 100 µM.
Turning to `OCCN(CCO)c1ncnc2nc[nH]c12`, the TGI in test [1], in test [2], in [3], in test [4], in [5] and in test [6] was more than 100 µM in each case. Besides, the TGI in [7], in test [8], in test [9], in [10] and in test [11] was more than 100 µM in each case.
On to `COC(=O)/C=C(\CC(=O)OC)n1nnnc1[C@@H]1C[C@H](COC(c2ccccc2)(c2ccccc2)c2ccccc2)[C@H]2OC(C)(C)O[C@H]21`, for which the TGI in test [1], in [2], in [3], in test [4], in test [5] and in [6] was more than 100 µM each time. For the same molecule, the TGI in test [7], in test [8], in test [9], in [10] and in test [11] was more than 100 µM each time.
Turning to `CN1C(c2ccccc2)CC(=O)C(N)C1c1ccccc1` (stereo not given), the TGI was more than 100 µM in [1]; 34.2 µM in test [3]; 50 µM in test [4]; 33.7 µM in test [7]; more than 100 µM in test [8]; more than 96.3 µM in test [11].
For the molecule `C/C(=N/N=C(\[O-])c1ccncc1)C(F)(F)F.C/C(=N\N=C(/[O-])c1ccncc1)C(F)(F)F.[Ni+2]`, the GI50 in test [2], in test [4] and in test [10] was more than 1 µM in each case. The TGI in test [2], in test [4] and in test [10] was more than 1 µM each time.
With `CCCCCCCCCCCCCCCC(=O)N1CCCC1C(=O)NCC(=O)NC(Cc1ccccc1)C(=O)NC(C)C(=O)NC(CO)C(=O)NC(Cc1ccc(O)cc1)C(=O)NC(CCCCN)C(=O)NC(CC(C)C)C(=O)NC(CCCN=C(N)N)C(=O)N1CCCC1C(=O)NCC(N)=O` (stereo not given) (Palmitoyl-PGFASYKLRPG-NH2; configuration not given here), the GI50 was 21.3 µM in [1]; 15.7 µM in test [2]; 12.1 µM in [3]; 18 µM in [4]; 18.2 µM in test [5]; 20.2 µM in [7]. The GI50 in [8] was 33.8 µM; in [10], 17.4 µM; in test [11], 21.9 µM. Besides, the TGI in test [1] stood at 40.8 µM; in [2], 43.6 µM; in test [3], 24.9 µM; in test [4] it was 47.3 µM; in test [5], 42.8 µM; in test [7] it was 46.9 µM. Also, the TGI in test [8] turned out to be 92.6 µM; in [10], 39.6 µM; in test [11], 52.1 µM.

Source of the values: PubChem BioAssay (NCI).
